Positions of bridges follow the written chain, without caps; N, C: chain ends. Non-standard residues stand in square brackets, D forms with d. Residues, ends and D or L forms follow the SMILES beside them.
Key:
[1] = test system: B16/F1 murine melanoma cells; test: Specificity of cellular uptake (peptide blockade); format: cell-based; conditions: rather than αvβ3 integrin-mediated
Procedure: The specificity of cell binding was determined by incubating ^99mTc-RGD-Lys-(Arg^11)CCMSH with or without non-radioactive peptides. After being washed once with binding media, B16/F1 cells in 24-well cell culture plates were incubated with approximately 200,000 cpm of HPLC purified ^99mTc-RGD-Lys-(Arg^11)CCMSH at 25° C. for 120 min (n=4) in the presence of 0.1 μM of RGD-Lys-(Arg^11)CCMSH, NDP-MSH, (Arg^11)CCMSH or RGD in 0.5 ml of binding media, respectively. The reaction media were aspirated after the incubation. The cells were rinsed twice with 0.5 ml of ice-cold pH 7.4, 0.2% BSA/0.01 M PBS and lysed in 0.5 ml of 1 N NaOH for 5 min. The activities associated with cells were measured in a gamma counter. Statistical analysis was performed using the Student's t-test for unpaired data.
The specificity of cellular uptake was determined by incubating ^99mTc-RGD-Arg-(Arg^11)CCMSH with or without non-radioactive peptides. After being washed once with binding medium, B16/F1 cells in 24-well cell culture plates were incubated with approximately 200,000 cpm of HPLC purified ^99mTc-RGD-Arg-(Arg^11)CCMSH at 25° C. for 120 min (n=3) in the presence of 0.1 μM of RGD-Arg-(Arg^11)CCMSH, (Arg^11)CCMSH, RGD or no peptide blockade in 0.5 mL of binding medium, respectively. The reaction medium was aspirated after the incubation. The cells were rinsed twice with 0.5 mL of ice-cold pH 7.4, 0.2% BSA/0.01 M PBS and lysed in 0.5 mL of 1 N NaOH for 5 min. The activities associated with cells were measured in a gamma counter.

B16/F1 melanoma = test: Biodistribution in B16/F1 melanoma-bearing C57 mice; format: in vivo; conditions: for Tumor uptake blocked by NDP-MSH: 6.1 nmol of NDP-MSH; for Tumor uptake decreased (blocked) by RGD co-injection: 3.5 μg (6.1 nmol) of RGD; for Tumor uptake with NDP-MSH co-injection as % of the tumor uptake without: 10 μg (6.1 nmol) NDP-MSH, 2 h after dose administration
Procedure: All the animal studies were conducted in compliance with Institutional Animal Care and Use Committee approval. The pharmacokinetics of ^99mTc-RGD-Lys-(Arg^11)CCMSH was determined in B16/F1 melanoma-bearing C57 female mice (Harlan, Indianapolis, Ind.). C57 mice were subcutaneously inoculated on the right flank with 1×10^6 B16/F1 cells. The weight of tumors reached approximately 0.2 g 10 days post cell inoculation. Each melanoma-bearing mouse was injected with 0.037 MBq of ^99mTc-RGD-Lys-(Arg^11)CCMSH via the tail vein. Groups of 5 mice were sacrificed at 0.5, 2, 4 and 24 h post-injection, and tumors and organs of interest were harvested, weighed and counted. Blood values were taken as 6.5% of the whole-body weight. The MC1 receptor specificity of the tumor uptake was determined at 2 h post-injection by co-injecting ^99mTc-RGD-Lys-(Arg^11)CCMSH with 10 μg (6.1 nmol) of unlabeled NDP-MSH, a linear α-MSH peptide analogue with picomolar affinity for the MC1 receptors present on murine melanoma cells. The co-injection of 3.5 μg (6.1 nmol) of RGD peptide was performed to determine the αvβ3 integrin specificity of the tumor uptake 2 h post-injection. Statistical analysis was performed using the Student's t-test for unpaired data.
All the animal studies were conducted in compliance with Institutional Animal Care and Use Committee approval. The pharmacokinetics of ^99mTc-RGD-Arg-(Arg^11)CCMSH was determined in B16/F1 melanoma-bearing C57 female mice (Harlan, Indianapolis, Ind.). C57 mice were subcutaneously inoculated on the right flank with 1×10^6 B16/F1 cells. The weight of tumors reached approximately 0.2 g 10 days post cell inoculation. Each melanoma-bearing mouse was injected with 0.037 MBq of ^99mTc-RGD-Arg-(Arg^11)CCMSH via the tail vein. Groups of 5 mice were sacrificed at 0.5, 2, 4 and 24 h post-injection, and tumors and organs of interest were harvested, weighed and counted. Blood values were taken as 6.5% of the whole-body weight. The MC1 receptor specificity of the tumor uptake was determined at 2 h post-injection by co-injecting ^99mTc-RGD-Arg-(Arg^11)CCMSH with 10 μg (6.1 nmol) of unlabeled NDP-MSH. The co-injection of 3.5 μg (6.1 nmol) of RGD peptide was performed to determine the αvβ3 integrin specificity of the tumor uptake at 2 h post-injection.

CC(C)[C@H](NC(=O)[C@@H]1CCCN1C(=O)[C@H](CCCNC(=N)N)NC(=O)[C@H](CS)NC(=O)[C@H](Cc1c[nH]c2ccccc12)NC(=O)[C@H](CCCNC(=N)N)NC(=O)[C@@H](Cc1ccccc1)NC(=O)[C@H](Cc1c[nH]cn1)NC(=O)[C@H](CCC(=O)O)NC(=O)[C@H](CS)NC(=O)[C@H](CS)NC(=O)[C@H](CCCCN)NC(=O)[C@@H]1CC(=O)N[C@@H](CCCNC(=N)N)C(=O)NCC(=O)N[C@@H](CC(=O)O)C(=O)N[C@H](Cc2ccc(O)cc2)C(=O)N1)C(N)=O [^99mTc-RGD-Lys-(Arg^11)CCMSH, metal not drawn] (RGD[dY]DKCCEH[dF]RWCRPV-NH2; lactam N-5)
Mechanism of cellular uptake [1]: MC1 receptor-mediated
Tumor uptake blocked by NDP-MSH (B16/F1 melanoma; 2 h post-injection): 87.8%
Tumor uptake decreased (blocked) by RGD co-injection (B16/F1 melanoma; 2 h post-injection): 29.2%
Tumor uptake with NDP-MSH co-injection as % of the tumor uptake without (B16/F1 melanoma): 12.2%
Kidneys, Percentage Injected Dose/gram (B16/F1 melanoma; 4 h post-injection): 69.29 ± 14.34 % ID/g
Renal uptake value, times that of ^99mTc-(Arg^11)CCMSH (B16/F1 melanoma; 4 h post-injection): 12.5 times
Tumor uptake value as % of the tumor uptake value 2 h post-injection (B16/F1 melanoma; 4 h post-injection): 85%
Tumor uptake value, times that of ^99mTc-(Arg^11)CCMSH (B16/F1 melanoma; 4 h post-injection): 1.1 times
Tumor uptake value as % of the tumor uptake value 2 h post-injection (B16/F1 melanoma; 24 h post-injection): 51%
Tumor uptake value, times that of ^99mTc-(Arg^11)CCMSH (B16/F1 melanoma; 24 h post-injection): 2.3 times
Renal uptake value, times that of ^188Re-dLys-(Arg^11)CCMSH (B16/F1 melanoma; mouse, in vivo): 1.2 times

CC(C)[C@H](NC(=O)[C@@H]1CCCN1C(=O)[C@H](CCCNC(=N)N)NC(=O)[C@H](CS)NC(=O)[C@H](Cc1c[nH]c2ccccc12)NC(=O)[C@H](CCCNC(=N)N)NC(=O)[C@@H](Cc1ccccc1)NC(=O)[C@H](Cc1c[nH]cn1)NC(=O)[C@H](CCC(=O)O)NC(=O)[C@H](CS)NC(=O)[C@H](CS)NC(=O)[C@H](CCCNC(=N)N)NC(=O)[C@@H]1CC(=O)N[C@@H](CCCNC(=N)N)C(=O)NCC(=O)N[C@@H](CC(=O)O)C(=O)N[C@H](Cc2ccc(O)cc2)C(=O)N1)C(N)=O [^99mTc-RGD-Arg-(Arg^11)CCMSH, metal not drawn] (RGD[dY]DRCCEH[dF]RWCRPV-NH2; lactam N-5)
Mechanism of cellular uptake [1]: MC1 receptor-mediated
Tumor uptake blocked by NDP-MSH (B16/F1 melanoma; 2 h post-injection): 90.9%
Tumor uptake decreased (blocked) by RGD co-injection (B16/F1 melanoma; 2 h post-injection): 21.2%
Tumor uptake with NDP-MSH co-injection as % of the tumor uptake without (B16/F1 melanoma): 9.15%
Renal uptake values as % of those of ^99mTc-RGD-Lys-(Arg^11)CCMSH (B16/F1 melanoma; 0.5, 2, 4 and 24 h post-injection): 40.14-64.08%
Renal uptake value as % of that of ^99mTc-RGD-Lys-(Arg^11)CCMSH (B16/F1 melanoma; 0.5 h post-injection): 53.65%
Tumor uptake value, times that of ^99mTc-RGD-Lys-(Arg^11)CCMSH (B16/F1 melanoma; 0.5 h post-injection): 1.27 times
Renal uptake value as % of that of ^99mTc-RGD-Lys-(Arg^11)CCMSH (B16/F1 melanoma; 2 h post-injection): 64.08%
Tumor uptake value, times that of ^99mTc-RGD-Lys-(Arg^11)CCMSH (B16/F1 melanoma; 2 h post-injection): 1.44 times
Renal uptake value as % of that of ^99mTc-RGD-Lys-(Arg^11)CCMSH (B16/F1 melanoma; 4 h post-injection): 52.89%
Tumor uptake value as % of the tumor uptake value 2 h post-injection (B16/F1 melanoma; 4 h post-injection): 75%
Tumor uptake value, times that of ^99mTc-RGD-Lys-(Arg^11)CCMSH (B16/F1 melanoma; 4 h post-injection): 1.28 times
Renal uptake value as % of that of ^99mTc-RGD-Lys-(Arg^11)CCMSH (B16/F1 melanoma; 24 h post-injection): 40.14%
Tumor/kidney uptake ratio, times that of ^99mTc-RGD-Lys-(Arg^11)CCMSH (B16/F1 melanoma; 24 h post-injection): 2.21 times
